We go through 3 compounds from EP4342530A1, “SORTILIN MODULATORS” (Insusense ApS, priority 2022, dated 2024).

Values joined by “and” are separate entries in the source; they are usually repeats but may differ in a detail not shown here. Equal entries are not always repeated.

Data set [1] has as its target T1, h-Sortilin (Homo sapiens, UniProt Q99523).
T1 sequence (Q99523 78-831): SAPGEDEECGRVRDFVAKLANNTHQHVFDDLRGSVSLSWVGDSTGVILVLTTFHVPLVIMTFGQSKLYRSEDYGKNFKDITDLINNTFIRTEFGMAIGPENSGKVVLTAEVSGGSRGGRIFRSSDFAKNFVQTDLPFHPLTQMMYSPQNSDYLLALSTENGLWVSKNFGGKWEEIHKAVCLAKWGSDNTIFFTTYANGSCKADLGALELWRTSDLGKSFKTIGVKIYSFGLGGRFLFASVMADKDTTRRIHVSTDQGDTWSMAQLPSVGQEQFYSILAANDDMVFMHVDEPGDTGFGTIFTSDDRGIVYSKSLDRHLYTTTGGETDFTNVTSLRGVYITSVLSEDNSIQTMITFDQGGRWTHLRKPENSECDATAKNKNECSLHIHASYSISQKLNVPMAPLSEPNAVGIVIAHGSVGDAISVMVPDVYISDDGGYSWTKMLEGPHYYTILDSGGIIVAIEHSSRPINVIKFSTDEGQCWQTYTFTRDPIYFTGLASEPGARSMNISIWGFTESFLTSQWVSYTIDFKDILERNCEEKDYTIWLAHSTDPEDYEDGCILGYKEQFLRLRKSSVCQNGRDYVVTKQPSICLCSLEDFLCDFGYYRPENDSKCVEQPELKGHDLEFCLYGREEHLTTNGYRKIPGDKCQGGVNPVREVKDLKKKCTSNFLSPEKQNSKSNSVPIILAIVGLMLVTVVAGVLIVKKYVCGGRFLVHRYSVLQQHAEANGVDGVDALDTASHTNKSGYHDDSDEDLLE
As to the kind of experiment: Neurotensin scintillation proximity assay (displacement of [3H]-neurotensin binding). Conditions: 150 nM 6his-Sortilin, 5 nM [3H]-Neurotensin; average of at least 2 determinations; read-out: IC50 [3H]Neurotensin SPA. The essentials: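 Compounds pre-incubated 30 min at room temperature with 150 nM 6His-sortilin in HEPES pH 7.4 buffer with NaCl, CaCl2, BSA and Tween-20, then 5 nM [3H]-neurotensin and Ni chelate SPA beads added; read after 6 h. IC50 from 8-point variable-slope fits, mean of at least 2 determinations.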

Data set [2] deals with T2, Sortilin (Homo sapiens, UniProt Q99523).
T2 construct: purchased Bio-Techne Ltd 3154-ST-050
T2 sequence (Q99523 78-755 limits assumed): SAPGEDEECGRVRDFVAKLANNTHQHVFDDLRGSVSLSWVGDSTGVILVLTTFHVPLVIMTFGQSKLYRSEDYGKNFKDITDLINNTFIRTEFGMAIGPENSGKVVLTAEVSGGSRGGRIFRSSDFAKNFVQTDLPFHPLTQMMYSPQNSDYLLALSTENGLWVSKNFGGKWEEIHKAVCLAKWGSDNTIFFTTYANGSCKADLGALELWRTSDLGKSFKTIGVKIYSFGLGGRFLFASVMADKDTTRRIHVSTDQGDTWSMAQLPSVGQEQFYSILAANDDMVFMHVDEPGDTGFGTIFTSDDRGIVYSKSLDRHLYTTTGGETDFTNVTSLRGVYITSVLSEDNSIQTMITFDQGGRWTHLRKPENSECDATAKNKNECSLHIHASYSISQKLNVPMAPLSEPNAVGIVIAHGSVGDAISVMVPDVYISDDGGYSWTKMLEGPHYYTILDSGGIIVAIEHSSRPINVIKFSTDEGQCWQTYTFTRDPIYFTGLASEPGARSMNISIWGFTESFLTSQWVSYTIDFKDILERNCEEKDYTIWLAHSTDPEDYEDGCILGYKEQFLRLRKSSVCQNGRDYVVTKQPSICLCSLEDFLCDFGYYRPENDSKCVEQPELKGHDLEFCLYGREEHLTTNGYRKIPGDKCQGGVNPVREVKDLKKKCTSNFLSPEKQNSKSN
As to the kind of experiment: Creoptix (GCI) binding kinetics, human Sortilin. Conditions: Species Human; Form of Compound Free acid; screened at 1 µM, 25 degrees Celsius. As for the experimental part:
(§1) Creoptix (GCI) method - using SEQ ID NO.4 (Murine sortillin)
(§2) A protein, bound to a surface, is bathed in a solution containing potential ligands giving rise to binding kinetics to generate Kon and Koff rates, as well as a Kd.
(§3) All buffers described were filtered using a 0.2µm filter (Product number: 10300461, Nalgene) and degassed for 15 minutes prior to use.
(§4) A flow cell temperature of 25 degrees Celsius was used throughout the experiment.
(§5) A 4PCH chip was conditioned across all flow cells using 0.2 X concentration running buffer (running buffer composition: 1XHBS-N, pH 7.4, 3.4 mM EDTA, 1% DMSO) using pre-set conditioning wizard (WAVE control software) injecting: 0.1 M borate, 1 M NaCl (pH 9) followed by three start-up injections of 0.2 X running buffer.
(§6) A buffer exchange was performed and 1x running buffer (1XHBS-N, pH 7.4, 3.4 mM EDTA, 1% DMSO) used during the immobilisation procedure: An initial injection of EDC/NHS (mixed in 1:1 ratio) was performed across all 4-flow cells to activate the surface for amine coupling of ligands.
(§7) Recombinant Sortilin aliquots were thawed quickly by hand and centrifuged at 13,300 rpm for 10 minutes. A 10 µg/ml protein solution was then made in pH 5.0 acetate and injected once for 20 minutes over flow-cells 2, 3 and 4 for human, human (flow cells 2 & 3), and mouse Sortilin respectively followed by a 60 second dissociation period.
(§8) A final 7-minute passivation injection of 50 mM tris was used across all flow cells.
(§9) A flow rate of 10 µl/min was used for all conditioning and immobilisation cycles.
(§10) Compounds were screened at 1 µM using the in-built 'intermediate binders' settings: 100 ul/min, 45 s baseline, 25 s association, 300 s dissociation, with blanks every 5th sample and a DMSO correction (1.5 % DMSO at the start and end of the experiment as well as every 20 cycles. An acquisition rate of 10 Hz was used throughout the experiment.
(§11) Compounds were screened at a final assay concentration of 1 µM and a final DMSO concentration was 1 %. To achieve this, compounds were diluted in DMSO from 10 mM stocks to 100 µM (100 x final assay concentration) then diluted 1:100 in running buffer which contained no DMSO to establish a final assay concentration of compound of 1 µM and a final DMSO concentration of 1 % [DMSO].
(§12) Compounds and DMSO were mixed by plate shaking at 1000 rpm for 60 seconds using a Bioshake instrument.
(§13) A flow rate of 100 µl/min was used throughout the experiment.
(§14) Data was evaluated using the RAPID kinetic analysis tool in the GCI WAVE_control software with data fitted using a standard 1:1 kinetic BioModel.

Data set [3] concerns the target T3, Sortilin (Mus musculus, UniProt Q6PHU5).
T3 construct: purchased Bio-Techne Ltd 2934-ST-050
T3 sequence (Q6PHU5 76-753 limits assumed): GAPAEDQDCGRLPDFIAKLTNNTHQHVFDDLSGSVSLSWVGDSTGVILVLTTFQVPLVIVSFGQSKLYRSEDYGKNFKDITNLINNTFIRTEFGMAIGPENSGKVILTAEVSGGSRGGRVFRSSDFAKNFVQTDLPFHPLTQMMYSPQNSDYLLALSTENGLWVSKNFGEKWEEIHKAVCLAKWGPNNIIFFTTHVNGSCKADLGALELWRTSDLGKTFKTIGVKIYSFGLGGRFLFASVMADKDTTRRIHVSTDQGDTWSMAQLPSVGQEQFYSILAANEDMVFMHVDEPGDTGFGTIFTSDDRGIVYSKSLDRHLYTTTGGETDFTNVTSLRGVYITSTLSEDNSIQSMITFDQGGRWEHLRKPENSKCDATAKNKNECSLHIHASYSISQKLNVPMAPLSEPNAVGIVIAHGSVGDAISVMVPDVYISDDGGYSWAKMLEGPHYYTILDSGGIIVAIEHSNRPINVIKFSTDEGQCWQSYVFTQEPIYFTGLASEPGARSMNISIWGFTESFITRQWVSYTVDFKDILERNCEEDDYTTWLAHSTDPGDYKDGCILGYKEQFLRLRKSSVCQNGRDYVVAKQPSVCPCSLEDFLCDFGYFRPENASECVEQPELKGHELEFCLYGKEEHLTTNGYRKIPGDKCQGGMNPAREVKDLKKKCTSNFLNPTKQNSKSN
As to the kind of experiment: Creoptix (GCI) binding kinetics, mouse Sortilin. Particulars: Species Mouse; Form of Compound Free acid; screened at 1 µM, 25 degrees Celsius. The protocol: as §1, §2, §3, §4, §5, §6, §7, §8, §9, §10, §11, §12, §13, §14

Data set [4] can be described thus: in vitro. Particulars: mouse, plasma, pH 7.4. The class given is in vitro ADME. As for the experimental part: (§15) Plasma protein binding and brain homogenate binding for study compounds in mouse, dog, and rat by rapid equilibrium dialysis
(§16) In practice, unbound fractions in plasma and brain tissue were assessed using rapid equilibrium dialysis in vitro. Separately a pharmacokinetic study was run in vivo whereby a dose of the compound of interest was given at T=0 hours and at subsequent timepoints (eg 0.5, 1 and 4 hours) plasma and separately brain samples were analysed for total concentration of the compound of interest. These total concentrations could then be adjusted with the unbound fraction to give the unbound concentrations in the plasma and brain.
(§17) The test compounds were incubated in plasma and brain homogenate from the relevant species at 37 °C in RED device with inserts (8K MWCO, Thermo scientific) for 4 hours at 5 µM in triplicates. 350 µL of 150 mM phosphate buffered saline (PBS, pH 7.4) was used as the receiver side solutions. […] After 10-minute centrifugation at 13 200 rpm, the sample supernatants were analysed with an LC-MS/MS, to obtain the unbound fraction of the test compound (Fub). The unbound fraction was calculated from the peak area ratios obtained for each matrix: Fub = CPBS /Cplasma; [formula] where CPBS and Cplasma are the analyte concentrations in PBS (receiver) and plasma (donor), respectively. […]

Data set [5] can be described thus: Blood-brain-barrier permeability in mice after IV administration. Conditions: 3 mg/kg intravenously, 0.5 hours after dosing.
Description: (§18) The compound is administered to the animal in a suitable vehicle at T=0 hours. At 0.5 hours post administration plasma and separately brain are removed, prepared and analysed for total compound concentration.
(§19) Temperature: 45 °C Injection Volume: 1.5 µl for brain, 4 µl for plasma Ion Source: ESI+, SRM detection
(§20) The unbound partition coefficient (Kpuu) was determined as a ratio between the free compound concentrations in plasma and brain: Kpuu = (Cub,brain)/(Cub,plasma) [formula]
(§21) Where Cu,brain = unbound concentration in brain (C × Fub, brain); wherein • C = concentration at steady state; and • Cub,plasma = unbound concentration in plasma (C × Fub).
The nature of data set [6]: in vivo. Particulars: male, CD1 (ICR), mouse.
Description: as §18, §19, §20, §21
Data set [7] in a line: in vitro. The class given is in vitro ADME. Particulars: mouse, brain homogenate, pH 7.4. The protocol: as §15, §16, §17

`CN1CCc2cc(CN[C@@H](CCC(C)(C)C)C(=O)O)ccc2C1` [Example 10, (S)-5,5-dimethyl-2-(((2-methyl-1,2,3,4-tetrahydroisoquinolin-6-yl)methyl)amino)hexanoic acid]: the IC50 in data set [1] turned out to be 640 nM. For the same compound, the dissociation constant Kd in data set [2] was 200 nM; in data set [3] it was 241 nM.
Consider `CN1CCOc2ccc(CN[C@@H](CCC(C)(C)C)C(=O)O)cc21` [Example 30, (2S)-5,5-dimethyl-2-{[(4-methyl-3,4-dihydro-2H-1,4-benzoxazin-6-yl)methyl]amino}hexanoic acid], for which, in data set [1], the IC50 was found to be 350 nM. For the same compound, the results for the Kd in data set [2] and in data set [3] were 5070 nM and 7600 nM, respectively.
With `Cc1cccc(NC(=O)c2ccc(C(F)(F)F)cc2C(=O)O)n1` [Comparative Example 1], in data set [4], the fraction unbound at 4 h, 5 µM is 0.068. Also, the “Brain to plasma ratio %” value in data set [5] is given as less than 1%. In addition, the Kp uu at 0.5 h in data set [6] was less than 0.1. Also, in data set [6] (3 mg/kg), the Kp at 0.5 h is less than 0.01; the concentration at 0.5 h is 3090 ng/mL and 5 ng/g. Further, in data set [7], the fraction unbound at 4 h, 5 µM is 0.273.
